{"source": "patent US20040248861A1", "about": "“Modified delta5-androstenes having improved bioavailability” (priority 2003, published 2004)", "origin": "cited, not measured here", "key": {"[1]": {"conditions": "200 mg/day for 28 days"}, "[2]": {"conditions": "monkeys, very high doses (equivalent to about 70 grams/day for a human)"}, "[3]": {"test_system": "virus similar to HIV", "conditions": "doses as low as 8 mg/kg/day"}, "[4]": {"conditions": "single transdermal dose of 25 mg"}, "[5]": {"test_system": "flu viruses", "conditions": "mice infected with flu viruses; to some of the viruses"}, "[6]": {"conditions": "supplement to diet"}, "[7]": {"conditions": "patients with normal adrenal function taking supplemental DHEA"}, "[8]": {"experiment": "not given", "remark": "listed apart in the source"}}}
{"molecule": "C[C@]12CC[C@H](O)CC1=CC(=O)[C@@H]1[C@@H]2CC[C@]2(C)C(=O)CC[C@@H]12", "note": "[7-keto-DHEA, 7-keto-dehydroepiandrosterone]", "values": [{"measurement": "safety problems in clinical trials", "setting": "[1]", "result": "no safety problems"}, {"measurement": "salivation", "setting": "[2]", "result": "caused excess salivation"}, {"measurement": "bodyweight", "setting": "[3]", "result": "regained bodyweight"}, {"measurement": "blood levels of HDL-cholesterol", "setting": "[4]", "result": "improved"}, {"measurement": "anti-viral antibodies", "setting": "[5]", "result": "increase"}, {"measurement": "T3 thyroid stimulating hormone", "setting": "[6]", "result": "increased"}, {"measurement": "body fat", "setting": "[6]", "result": "statistically significant decreased"}, {"measurement": "bodyweight", "setting": "[6]", "result": "statistically significant decreased"}, {"measurement": "metabolism to estrogens or testosterone", "setting": "in vivo", "result": "does not metabolize"}, {"measurement": "estradiol levels in the blood", "setting": "supplementary 7-keto-DHEA", "result": "decrease"}, {"measurement": "testosterone levels in the blood", "setting": "supplementary 7-keto-DHEA", "result": "decrease"}]}
{"molecule": "C[C@]12CC[C@H](O)CC1=CC[C@@H]1[C@@H]2CC[C@]2(C)C(=O)CC[C@@H]12", "note": "[DHEA, dehydroepiandrosterone]", "values": [{"measurement": "acne (share of patients)", "setting": "[7]", "result": "over 50%"}]}
{"molecule": "C[C@]12CC[C@H]3[C@@H](CCC4=CC(=O)CC[C@@]43C)[C@@H]1CC[C@@H]2O", "note": "[free testosterone, testosterone]", "values": [{"measurement": "effect on serum levels of testosterone", "setting": "[8]; oral, equivalent dose (63 mg)", "result": "no noticeable effect"}]}
{"molecule": "CCCCCCCCCCC(=O)O[C@H]1CC[C@H]2[C@@H]3CCC4=CC(=O)CC[C@]4(C)[C@H]3CC[C@]12C", "note": "[testosterone undecanoate]", "values": [{"measurement": "increase in serum levels of testosterone", "setting": "[8]; single oral dose of 100 mg, dissolved in oil", "result": 2.3, "unit": "fold"}]}
